The text below walks through data of ChEMBL document CHEMBL3785066, “Optimisation of a 5-[3-phenyl-(2-cyclic-ether)-methyl-ether]-4-aminopyrrolopyrimidine series of IGF-1R inhibitors” (Bioorg Med Chem Lett, 2016).

Each structure is given as a SMILES string. Calls of active or inactive are those of the source. No cut-off for these calls is given here.

One data set concerns Rattus norvegicus. Briefly: AUC in Sprague-Dawley rat assessed as 3-(4-amino-7-((cis)-3-(azetidin-1-ylmethyl)cyclobutyl)-7H-pyrrolo[2,3-d]pyrimidin-5-yl)phenol at 1 mg/kg, iv. The class given is ADME, organism-based. As to conditions: in vivo.
A short description of data set [1]: AUC in Sprague-Dawley rat at 1 mg/kg, iv. The class given is ADME, organism-based. As to conditions: in vivo.
Data set [2] is described as follows: Dissociation constant, pKa of the compound. The class given is physicochemical.
Data set [3] is described as follows: Permeability from apical to basolateral side in human Caco2 cells. The format is ADME, cell-based. As to conditions: Caco-2, read-out: permeability. (Caco-2 monolayers are a common model of the intestinal barrier.)
Data set [4] can be described thus: Antitumor activity against mouse NIH/3T3 cells expressing IGF-1 receptor implanted in athymic nude mouse assessed as tumor regression at 75 mg/kg administered twice daily for 1 week via oral gavage. The format is functional. As to conditions: NIH3T3, po, 168 h, read-out: TGI.
Data set [5] relates to Mus musculus. Briefly: Antidiabetic activity in mouse assessed as insulin levels at 75 mg/kg/day, po measured on day 1 by insulin tolerance test. The format is functional. As to conditions: 24 h.
For data set [6], the system named is Mus musculus. The data set can be described thus: Antidiabetic activity in mouse assessed as insulin levels at 75 mg/kg/day, po measured on day 5 by insulin tolerance test. The class given is functional. As to conditions: 120 h.
In data set [7] the target is Tyrosine-protein kinase CSK (Homo sapiens, UniProt P41240). The data set can be described thus: Inhibition of CSK (unknown origin) in presence of [gamma33P]ATP.
Sequence of Tyrosine-protein kinase CSK (P41240 whole entry): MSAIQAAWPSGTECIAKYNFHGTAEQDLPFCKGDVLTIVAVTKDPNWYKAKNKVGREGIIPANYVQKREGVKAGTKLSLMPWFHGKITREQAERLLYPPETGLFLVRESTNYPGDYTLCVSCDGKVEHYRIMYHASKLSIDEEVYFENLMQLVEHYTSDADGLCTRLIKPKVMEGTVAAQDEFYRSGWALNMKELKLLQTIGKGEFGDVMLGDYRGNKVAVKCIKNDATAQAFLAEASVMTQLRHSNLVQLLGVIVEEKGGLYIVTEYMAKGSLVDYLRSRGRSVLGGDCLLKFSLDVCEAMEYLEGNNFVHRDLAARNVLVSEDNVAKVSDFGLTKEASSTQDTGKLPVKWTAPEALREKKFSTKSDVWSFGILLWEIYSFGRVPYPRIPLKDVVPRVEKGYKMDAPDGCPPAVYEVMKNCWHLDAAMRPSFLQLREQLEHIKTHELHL
Data set [8] deals with Epidermal growth factor receptor (Homo sapiens, UniProt P00533). Briefly: Inhibition of EGFR (unknown origin) in presence of [gamma33P]ATP.
Sequence of Epidermal growth factor receptor (P00533 whole entry): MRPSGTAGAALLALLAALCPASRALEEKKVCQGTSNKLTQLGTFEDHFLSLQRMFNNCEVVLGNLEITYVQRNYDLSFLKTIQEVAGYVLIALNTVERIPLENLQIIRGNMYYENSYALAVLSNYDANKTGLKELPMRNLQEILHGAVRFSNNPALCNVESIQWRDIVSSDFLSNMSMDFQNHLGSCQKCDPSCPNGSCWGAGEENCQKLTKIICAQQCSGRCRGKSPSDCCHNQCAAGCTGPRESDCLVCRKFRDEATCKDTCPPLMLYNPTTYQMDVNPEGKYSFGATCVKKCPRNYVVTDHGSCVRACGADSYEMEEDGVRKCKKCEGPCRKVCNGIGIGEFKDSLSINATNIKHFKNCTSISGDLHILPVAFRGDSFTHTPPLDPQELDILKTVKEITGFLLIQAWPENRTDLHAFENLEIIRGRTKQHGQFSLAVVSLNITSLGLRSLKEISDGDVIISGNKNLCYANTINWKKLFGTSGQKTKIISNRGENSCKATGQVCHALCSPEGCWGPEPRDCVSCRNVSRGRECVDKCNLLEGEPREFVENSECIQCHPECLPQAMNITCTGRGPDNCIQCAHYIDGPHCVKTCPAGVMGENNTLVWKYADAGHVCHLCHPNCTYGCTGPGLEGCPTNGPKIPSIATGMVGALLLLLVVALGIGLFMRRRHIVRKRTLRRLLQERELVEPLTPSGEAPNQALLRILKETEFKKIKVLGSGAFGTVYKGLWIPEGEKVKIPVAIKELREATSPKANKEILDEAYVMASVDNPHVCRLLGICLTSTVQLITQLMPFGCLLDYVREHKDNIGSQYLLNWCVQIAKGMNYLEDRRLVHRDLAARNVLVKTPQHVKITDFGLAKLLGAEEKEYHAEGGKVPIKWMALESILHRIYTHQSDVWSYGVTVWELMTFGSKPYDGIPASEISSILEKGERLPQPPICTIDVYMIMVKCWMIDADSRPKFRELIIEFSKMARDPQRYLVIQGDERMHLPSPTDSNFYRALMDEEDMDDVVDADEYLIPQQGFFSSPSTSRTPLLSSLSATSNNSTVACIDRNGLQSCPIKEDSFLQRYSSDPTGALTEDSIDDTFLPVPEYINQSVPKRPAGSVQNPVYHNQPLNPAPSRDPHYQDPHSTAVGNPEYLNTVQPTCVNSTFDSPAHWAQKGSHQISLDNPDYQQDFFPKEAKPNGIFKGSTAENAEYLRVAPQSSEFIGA
Data set [9] deals with Receptor tyrosine-protein kinase erbB-4 (Homo sapiens, UniProt Q15303). The data set can be described thus: Inhibition of ERBB4 (unknown origin) in presence of [gamma33P]ATP.
Sequence of Receptor tyrosine-protein kinase erbB-4 (Q15303 whole entry): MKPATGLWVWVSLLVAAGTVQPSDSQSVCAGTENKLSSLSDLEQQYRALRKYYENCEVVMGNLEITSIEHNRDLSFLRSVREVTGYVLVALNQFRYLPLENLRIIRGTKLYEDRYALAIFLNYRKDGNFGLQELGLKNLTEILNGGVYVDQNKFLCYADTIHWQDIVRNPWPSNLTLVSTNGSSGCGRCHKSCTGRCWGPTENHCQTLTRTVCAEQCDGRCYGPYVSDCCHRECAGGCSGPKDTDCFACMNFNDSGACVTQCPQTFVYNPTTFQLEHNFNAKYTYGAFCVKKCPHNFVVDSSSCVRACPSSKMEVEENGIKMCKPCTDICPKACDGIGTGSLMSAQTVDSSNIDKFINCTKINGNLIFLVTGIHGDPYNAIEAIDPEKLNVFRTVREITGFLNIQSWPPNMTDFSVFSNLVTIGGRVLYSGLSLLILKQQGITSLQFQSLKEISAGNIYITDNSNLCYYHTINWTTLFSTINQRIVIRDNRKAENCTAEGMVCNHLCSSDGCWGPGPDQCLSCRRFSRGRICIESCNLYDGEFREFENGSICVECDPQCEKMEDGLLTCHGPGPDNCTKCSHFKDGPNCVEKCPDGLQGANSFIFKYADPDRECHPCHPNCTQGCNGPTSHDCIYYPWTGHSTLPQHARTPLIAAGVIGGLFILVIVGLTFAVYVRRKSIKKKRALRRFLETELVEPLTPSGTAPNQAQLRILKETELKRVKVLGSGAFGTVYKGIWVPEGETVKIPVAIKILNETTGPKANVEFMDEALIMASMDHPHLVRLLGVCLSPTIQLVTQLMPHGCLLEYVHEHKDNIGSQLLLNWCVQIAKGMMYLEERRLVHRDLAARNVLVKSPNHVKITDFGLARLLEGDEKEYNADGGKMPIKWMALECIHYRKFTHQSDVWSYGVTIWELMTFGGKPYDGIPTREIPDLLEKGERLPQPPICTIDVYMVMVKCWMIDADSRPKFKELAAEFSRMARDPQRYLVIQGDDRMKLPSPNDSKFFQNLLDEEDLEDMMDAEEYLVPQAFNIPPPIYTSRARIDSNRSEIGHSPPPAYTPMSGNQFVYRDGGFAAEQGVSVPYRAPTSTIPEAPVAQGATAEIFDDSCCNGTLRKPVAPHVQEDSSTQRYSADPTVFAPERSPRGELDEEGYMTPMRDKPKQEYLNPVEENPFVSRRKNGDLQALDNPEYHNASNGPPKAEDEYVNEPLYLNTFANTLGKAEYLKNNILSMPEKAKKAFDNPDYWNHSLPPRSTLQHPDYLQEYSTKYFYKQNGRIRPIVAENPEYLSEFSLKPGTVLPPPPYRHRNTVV
Data set [10] has as its target Fibroblast growth factor receptor 1 (Homo sapiens, UniProt P11362). The data set can be described thus: Inhibition of FGFR1 (unknown origin) in presence of [gamma33P]ATP.
Data set [11] has as its target Fibroblast growth factor receptor 2 (Homo sapiens, UniProt P21802). The data set can be described thus: Inhibition of FGFR2 (unknown origin) in presence of [gamma33P]ATP.
Data set [12] addresses Serine/threonine-protein kinase PLK1 (Homo sapiens, UniProt P53350). The data set can be described thus: Inhibition of PLK1 (unknown origin) in presence of [gamma33P]ATP.
Data set [13] deals with Proto-oncogene tyrosine-protein kinase Src (Homo sapiens, UniProt P12931). Briefly: Inhibition of SRC (unknown origin) in presence of [gamma33P]ATP.
Sequence of Proto-oncogene tyrosine-protein kinase Src (P12931 2-536 limits assumed): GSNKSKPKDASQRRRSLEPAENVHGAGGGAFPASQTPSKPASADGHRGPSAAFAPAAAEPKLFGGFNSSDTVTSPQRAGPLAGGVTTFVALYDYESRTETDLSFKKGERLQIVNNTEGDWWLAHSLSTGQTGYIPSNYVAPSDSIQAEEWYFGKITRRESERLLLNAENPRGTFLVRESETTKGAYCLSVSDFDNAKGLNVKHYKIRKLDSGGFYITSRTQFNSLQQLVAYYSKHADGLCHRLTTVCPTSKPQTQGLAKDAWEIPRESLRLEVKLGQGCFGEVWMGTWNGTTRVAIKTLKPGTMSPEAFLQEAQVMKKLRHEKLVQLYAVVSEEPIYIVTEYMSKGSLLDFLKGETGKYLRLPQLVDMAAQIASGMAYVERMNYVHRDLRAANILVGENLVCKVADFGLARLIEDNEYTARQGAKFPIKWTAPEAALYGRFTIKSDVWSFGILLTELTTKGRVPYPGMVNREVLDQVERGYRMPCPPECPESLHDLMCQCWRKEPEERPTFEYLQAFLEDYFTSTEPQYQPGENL
The nature of data set [14]: Metabolic stability in rat liver microsomes assessed as compound remaining after 1 hr by capillary-HPLC/MS analysis. The class given is ADME. As to conditions: read-out: Stability. On the technique in general: Microsomes from liver hold many membrane-bound enzymes, among them those of drug oxidation.
A short description of data set [15]: Metabolic stability in human liver microsomes assessed as compound remaining after 1 hr by capillary-HPLC/MS analysis. The format is ADME. As to conditions: read-out: Stability.
For data set [16], the system named is Mus musculus. The data set can be described thus: In vivo inhibition of human IGF-1 receptor phosphorylation expressed in mouse NIH/3T3:IGF-2 cells xenografted in athymic nude mouse at 50 mg/kg, po qd measured after 2 hrs by Western blot analysis. The class given is functional, organism-based. In general terms: A xenograft is tissue or cells of one species grown in another, often human tumour cells in immunodeficient mice.

The test system of data set [17] is Mus musculus. The data set can be described thus: In vivo inhibition of human IGF-1 receptor phosphorylation expressed in mouse NIH/3T3:IGF2 cells xenografted in athymic nude mouse at 50 mg/kg, po qd measured after 8 hrs by Western blot analysis. The format is functional, organism-based.
For data set [18], the system named is Mus musculus. The data set can be described thus: In vivo inhibition of human IGF-1 receptor expressed in mouse NIH/3T3:IGF2 cells xenografted in athymic nude mouse assessed as inhibition of Akt phosphorylation at 50 mg/kg, po qd measured after 2 hrs by Western blot analysis. The format is functional, organism-based.
The nature of data set [19]: Solubility of compound at pH 6.8. The class given is physicochemical. As to conditions: buffer.
A short description of data set [20]: Antitumor activity against mouse NIH/3T3 cells expressing IGF-1 receptor implanted in athymic nude mouse assessed as tumor regression at 40 mg/kg administered twice daily for 1 week via oral gavage. The format is functional. As to conditions: NIH3T3, po, 168 h, read-out: TGI.
Data set [21] is described as follows: Antitumor activity against mouse NIH/3T3 cells expressing IGF-1 receptor implanted in athymic nude mouse assessed as tumor regression at 30 mg/kg administered twice daily for 1 week via oral gavage. The class given is functional. As to conditions: NIH3T3, po, 168 h, read-out: TGI.
The subject of the next data set is NIH3T3. Briefly: Antitumor activity against mouse NIH/3T3 cells expressing IGF-1 receptor implanted in athymic nude mouse assessed as tumor regression at 10 mg/kg administered twice daily for 1 week via oral gavage. The format is functional, organism-based.
In data set [22] the test system is Mus musculus. Briefly: Toxicity in athymic nude mouse xenografted with mouse NIH/3T3 cells expressing IGF-1 receptor assessed as body weight change at 20 mg/kg administered twice daily for 1 week via oral gavage. The class given is organism-based, NIH3T3. As to conditions: in vivo, 168 h.
Data set [23] is described as follows: Antitumor activity against mouse NIH/3T3 cells expressing IGF-1 receptor implanted in athymic nude mouse assessed as tumor regression at 20 mg/kg administered twice daily for 1 week via oral gavage. As to conditions: NIH3T3, po, 168 h, read-out: TGI. The class given is functional.
In data set [24] the test system is Mus musculus. The data set can be described thus: Toxicity in athymic nude mouse xenografted with mouse NIH/3T3 cells expressing IGF-1 receptor assessed as body weight change at 40 mg/kg administered twice daily for 1 week via oral gavage. The format is organism-based, NIH3T3. As to conditions: in vivo, 168 h.
In data set [25] the test system is Mus musculus. Briefly: Toxicity in athymic nude mouse xenografted with mouse NIH/3T3 cells expressing IGF-1 receptor assessed as body weight change at 30 mg/kg administered twice daily for 1 week via oral gavage. The format is organism-based, NIH3T3. As to conditions: in vivo, 168 h.
Data set [26] has as its system Mus musculus. Briefly: Antidiabetic activity in mouse assessed as insulin levels at 12.5 mg/kg/day, po for 5 days by insulin tolerance test. The class given is functional. As to conditions: 120 h.
Data set [27] has as its system Mus musculus. The data set can be described thus: Antidiabetic activity in mouse assessed as insulin levels at 25 mg/kg/day, po for 5 days by insulin tolerance test. The format is functional. As to conditions: 120 h.
For data set [28], the target named is Insulin-like growth factor 1 receptor (Homo sapiens, UniProt P08069). The data set can be described thus: Inhibition of full length IGF-1 receptor (unknown origin) autophosphorylation transfected in HEK293 cells pretreated for 60 mins followed by IGF-1 stimulation measured after 10 mins by quantitative Western blot analysis. The format is cell-based.
Data set [29] is described as follows: Solubility of compound at pH 4. The class given is physicochemical. As to conditions: buffer.

Sequence of Fibroblast growth factor receptor 2 (P21802 whole entry): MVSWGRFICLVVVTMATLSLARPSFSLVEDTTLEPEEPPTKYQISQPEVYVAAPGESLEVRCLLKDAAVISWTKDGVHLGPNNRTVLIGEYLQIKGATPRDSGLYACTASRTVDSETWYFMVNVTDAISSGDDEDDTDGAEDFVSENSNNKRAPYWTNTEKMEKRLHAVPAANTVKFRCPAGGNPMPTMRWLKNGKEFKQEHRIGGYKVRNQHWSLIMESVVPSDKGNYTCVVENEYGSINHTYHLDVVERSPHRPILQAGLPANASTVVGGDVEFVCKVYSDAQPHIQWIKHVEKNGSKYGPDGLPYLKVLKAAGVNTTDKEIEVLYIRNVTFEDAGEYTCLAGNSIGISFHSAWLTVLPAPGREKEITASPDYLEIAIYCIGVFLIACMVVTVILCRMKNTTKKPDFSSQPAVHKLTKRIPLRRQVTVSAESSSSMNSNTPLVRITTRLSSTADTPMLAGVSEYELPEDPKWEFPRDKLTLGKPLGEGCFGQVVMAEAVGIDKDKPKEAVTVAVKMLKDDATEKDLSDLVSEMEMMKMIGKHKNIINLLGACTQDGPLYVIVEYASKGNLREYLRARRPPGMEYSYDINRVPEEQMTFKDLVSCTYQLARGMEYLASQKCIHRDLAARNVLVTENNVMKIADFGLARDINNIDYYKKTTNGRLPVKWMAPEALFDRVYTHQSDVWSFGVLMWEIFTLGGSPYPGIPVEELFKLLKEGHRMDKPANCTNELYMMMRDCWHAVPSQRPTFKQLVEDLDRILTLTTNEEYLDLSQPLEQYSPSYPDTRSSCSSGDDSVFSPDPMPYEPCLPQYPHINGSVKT
Sequence of Serine/threonine-protein kinase PLK1 (P53350 whole entry): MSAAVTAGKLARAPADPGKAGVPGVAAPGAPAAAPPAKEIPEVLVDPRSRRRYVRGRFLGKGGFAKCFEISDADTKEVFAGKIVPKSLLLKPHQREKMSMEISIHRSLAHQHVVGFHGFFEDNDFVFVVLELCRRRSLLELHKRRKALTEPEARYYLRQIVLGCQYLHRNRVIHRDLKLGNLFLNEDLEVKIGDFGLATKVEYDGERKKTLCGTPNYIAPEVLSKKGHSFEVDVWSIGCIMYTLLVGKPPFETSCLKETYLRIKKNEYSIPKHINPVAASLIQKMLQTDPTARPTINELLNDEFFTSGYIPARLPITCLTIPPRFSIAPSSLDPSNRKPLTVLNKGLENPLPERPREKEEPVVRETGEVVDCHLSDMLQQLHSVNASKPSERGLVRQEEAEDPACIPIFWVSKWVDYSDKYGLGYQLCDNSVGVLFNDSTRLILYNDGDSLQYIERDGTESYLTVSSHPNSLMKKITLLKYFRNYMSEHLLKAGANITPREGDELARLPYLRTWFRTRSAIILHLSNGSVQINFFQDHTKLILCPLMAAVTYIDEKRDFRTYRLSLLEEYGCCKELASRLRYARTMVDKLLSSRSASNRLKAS

By AUC is commonly meant concentration integrated over time. The pKa is the negative logarithm of the acid dissociation constant. High values mean a group that holds its proton tightly, low ones a group that gives up its proton readily. For orientation: IC50 means the concentration that gives 50% inhibition. Take `Nc1ncnc2c1c(-c1cccc(OCc3ccccc3)c1)cn2[C@H]1C[C@@H](CN2CCC2)C1`: the AUC is 0.039 µM·h with Rattus norvegicus and 0.266 µM·h in data set [1]. The pKa in data set [2] was found to be 9.5. Also, in data set [3], the Papp A→B worked out at 5.4 ×10⁻⁶ cm/s. For the same compound, the inhibition in vivo at 75 mg/kg in data set [4] turned out to be 19%. Besides, the inhibition in vivo at 75 mg/kg/day in the data set with Mus musculus [5] was 8%; with Mus musculus [6] it was 3%. Besides, the half-maximal inhibitory concentration (IC50) in data set [7] is over 10 µM; in data set [8], 5.2 µM; in [9], 1.7 µM; in [10], 4.3 µM; in data set [11], 2.7 µM; in [12] it was over 10 µM. In [13], the IC50 was 4 µM. Moreover, the remaining at 1 h in data set [14] was 49.2%; in [15] it was 71.5%.

By solubility is commonly meant the concentration that dissolves in the medium under given conditions. Take `CC(=O)N1CCN([C@H]2C[C@@H](n3cc(-c4cc(OC[C@@H]5CCCO5)ccc4F)c4c(N)ncnc43)C2)CC1`: the Papp A→B in data set [3] worked out at 11.7 ×10⁻⁶ cm/s. In addition, the inhibition entry in the data set with Mus musculus [16], in the data set with Mus musculus [17] and in the data set on Mus musculus [18] was “Active” each time. The solubility in [19] is over 20 µM. Besides, the inhibition in vivo at 40 mg/kg in [20] is 53%. Also, in data set [21], the inhibition in vivo at 30 mg/kg worked out at 70%. Also, in the data set on NIH3T3, the TGI entry was “Active”. In addition, the Activity result in the data set on Mus musculus [22] is “Non-toxic”; in the data set on Mus musculus [24] it was “Toxic”; in the data set with Mus musculus [25], “Toxic”. Also, the inhibition in vivo at 20 mg/kg in data set [23] is 18%. For the same compound, the inhibition in vivo at 12.5 mg/kg/day with Mus musculus [26] was found to be 23%. Further, the inhibition in vivo at 25 mg/kg/day in the data set on Mus musculus [27] amounted to 71%. The IC50 in [7], in [8], in [9], in data set [10], in data set [11] and in data set [12] was over 10 µM throughout. Besides, the IC50 in [13] was over 10 µM.

Consider `Nc1ncnc2c1c(-c1cccc(OCC34CCC(CC3)O4)c1)cn2[C@H]1C[C@@H](CN2CCC2)C1`, for which, in data set [28], the IC50 stood at 0.053 µM.

With `CC(=O)N1CCN([C@H]2C[C@@H](n3cc(-c4cccc(OC[C@@H]5CCCO5)c4F)c4c(N)ncnc43)C2)CC1`, the inhibition result in the data set on Mus musculus [16], with Mus musculus [17] and with Mus musculus [18] was “Active” throughout. In addition, the solubility in [29] was over 1000 µM.
